Measured values from US20260078119A1, “DEGRADER COMPOUNDS AND USES THEREOF” (Bristol-Myers Squibb Company, priority 2024, published 2026).
pEC50: −log10 of the molar value.

Tests used:
[1] = biological target: T1, FAK (Homo sapiens, UniProt Q05397); assay: FAK-HiBiT Degradation Assay; type: cell-based; details: for DC50: JHH-4-FAK-HiBiT clone d01 cells, two hours incubation, 10-point dose response, 3-fold dilution starting at 1 μM, Nano-Glo HiBiT luminescence, read-out: FAK HiBiT EC50; for FAK HiBiT Ymin: lower limit of the four parameter fit (value A), Ymax derived using DMSO control, JHH-4-FAK-HiBiT cells, two hours
T1 construct: homozygous knock-in of a HiBiT tag (Promega Corporation, Madison, WI) to the C-terminus of the FAK gene in its natural genomic locus; endogenous in cells; host or cells: JHH-4-FAK-HiBiT clone d01 (CRISPR-Cas9 knock-in at the endogenous locus)
In short: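 Degradation read out by HiBiT lytic luminescence after 2 h compound exposure (top concentration 1 μM, 3-fold, 10 points) in JHH-4 clone d01 bearing endogenous FAK-HiBiT knock-in. Four-parameter logistic fit gave EC50 and Ymin; DMSO wells defined Ymax.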

[2] = system: CAL-51 cells; assay: CAL-51 Cell Proliferation Assay; type: cell-based; details: for pEC50: Homo sapiens, 120 hours incubation, 10-point dose response, 4-fold dilutions starting at 10 μM, Cell-Titer-Glo, read-out: CAL-51 Prolif EC50; for CAL-51 Prolif Ymin: minimal percent of DMSO control observed in the concentrations tested (Ymin-obs), 120 hours
In short: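 EC50 comes from a four-parameter logistic fit of blank-corrected, DMSO-normalised CellTiter-Glo signal after 120 h growth (37 °C, 350 cells/well, RPMI complete medium). Compounds ran as 10-point 4-fold series starting at 10 μM, duplicate, 0.1% DMSO. Ymin-obs records the minimal percent of DMSO control observed.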

T1 sequence (Q05397 whole entry): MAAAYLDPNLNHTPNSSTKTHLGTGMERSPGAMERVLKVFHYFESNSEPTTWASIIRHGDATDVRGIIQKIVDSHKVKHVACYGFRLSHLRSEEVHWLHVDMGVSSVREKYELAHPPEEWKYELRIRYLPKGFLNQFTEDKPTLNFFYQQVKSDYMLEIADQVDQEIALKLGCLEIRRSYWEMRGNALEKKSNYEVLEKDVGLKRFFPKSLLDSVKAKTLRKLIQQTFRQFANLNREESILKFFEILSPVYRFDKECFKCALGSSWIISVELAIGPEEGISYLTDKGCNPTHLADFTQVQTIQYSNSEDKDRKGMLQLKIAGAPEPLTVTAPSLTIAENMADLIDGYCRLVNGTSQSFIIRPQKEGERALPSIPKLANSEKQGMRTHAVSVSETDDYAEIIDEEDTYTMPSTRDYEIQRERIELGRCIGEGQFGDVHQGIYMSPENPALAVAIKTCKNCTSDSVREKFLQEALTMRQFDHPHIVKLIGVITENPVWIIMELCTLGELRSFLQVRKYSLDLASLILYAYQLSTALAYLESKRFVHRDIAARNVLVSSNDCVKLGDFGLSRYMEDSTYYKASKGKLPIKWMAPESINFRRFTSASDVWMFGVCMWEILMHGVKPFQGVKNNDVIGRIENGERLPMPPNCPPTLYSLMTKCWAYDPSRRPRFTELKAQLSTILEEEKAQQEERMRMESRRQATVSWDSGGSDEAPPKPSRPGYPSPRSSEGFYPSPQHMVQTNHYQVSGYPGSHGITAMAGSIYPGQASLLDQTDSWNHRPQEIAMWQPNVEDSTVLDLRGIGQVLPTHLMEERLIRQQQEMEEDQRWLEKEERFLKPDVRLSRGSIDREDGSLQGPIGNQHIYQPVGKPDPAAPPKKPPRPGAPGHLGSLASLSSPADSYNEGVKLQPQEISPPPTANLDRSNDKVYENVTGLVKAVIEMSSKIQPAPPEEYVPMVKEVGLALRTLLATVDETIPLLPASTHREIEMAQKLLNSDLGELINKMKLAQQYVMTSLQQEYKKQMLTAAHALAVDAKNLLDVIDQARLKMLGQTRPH

Row | DC50 [1] | FAK HiBiT Ymin [1] | Compound | pEC50 [2] | CAL-51 Prolif Ymin [2]
1 | 7.95 nM | 23.15 | N#Cc1ccc(-c2c(F)c(N3CC(F)C3)nc3c2cnn3Cc2ccc3c(c2)CN([C@H]2CCC(=O)NC2=O)C3=O)nc1 [Example 75, 6-[1-({2-[(3S)-2,6-dioxopiperidin-3-yl]-1-oxo-2,3-dihydro-1H-isoindol-5-yl}methyl)-5-fluoro-6-(3-fluoroazetidin-1-yl)-1H-pyrazolo[3,4-b]pyridin-4-yl]pyridine-3-carbonitrile] | 8.01 | 52.27
2 | 1.24 nM | 5.70 | O=C1CC[C@H](N2Cc3cc(Cn4ncc5c(-c6ncc(F)cc6Cl)cc(N6CC(F)C6)nc54)cc(F)c3C2=O)C(=O)N1 [Example 42, (3S)-3-(5-{[4-(3-chloro-5-fluoropyridin-2-yl)-6-(3-fluoroazetidin-1-yl)-1H-pyrazolo[3,4-b]pyridin-1-yl]methyl}-7-fluoro-1-oxo-2,3-dihydro-1H-isoindol-2-yl)piperidine-2,6-dione] | 8.72 | 24.80
3 | 1.79 nM | 8.57 | CCOc1cnc(-c2cc(N3CC(F)C3)nc3c2cnn3Cc2ccc3c(c2)CN(C2CCC(=O)NC2=O)C3=O)c(C#N)c1 (centres unmarked) [Example 46, 2-(1-{[2-(2,6-dioxopiperidin-3-yl)-1-oxo-2,3-dihydro-1H-isoindol-5-yl]methyl}-6-(3-fluoroazetidin-1-yl)-1H-pyrazolo[3,4-b]pyridin-4-yl)-5-ethoxypyridine-3-carbonitrile] | 9.04 | 30.10
4 | ≥ 1000 nM | 96.37 | CCc1cc2c(-c3ncc(C(F)(F)F)cc3Cl)cc(N3CC(F)C3)nc2n1Cc1ccc2c(c1)CN(C1CCC(=O)NC1=O)C2=O (centres unmarked) [Example 16, 3-(5-((4-(3-chloro-5-(trifluoromethyl)pyridin-2-yl)-2-ethyl-6-(3-fluoroazetidin-1-yl)-1H-pyrrolo[2,3-b]pyridin-1-yl)methyl)-1-oxoisoindolin-2-yl)piperidine-2,6-dione] | 6.53 | 81.53
5 | 51.9 nM | 47.34 | O=C1CC[C@H](N2Cc3cc(Cn4ncc5c(-c6ncc(C(F)(F)F)cc6Cl)cc(N6CC[C@H](CCO)C6)nc54)ccc3C2=O)C(=O)N1 [Example 145, (S)-3-(5-((4-(3-chloro-5-(trifluoromethyl)pyridin-2-yl)-6-((R)-3-(2-hydroxyethyl)pyrrolidin-1-yl)-1H-pyrazolo[3,4-b]pyridin-1-yl)methyl)-1-oxoisoindolin-2-yl)piperidine-2,6-dione] | 7.13 | 66.44
6 | 2.23 nM | 10.32 | O=C1CC[C@H](N2Cc3cc(Cn4ncc5c(-c6ncc(F)cc6Cl)cc(N6CC(F)C6)nc54)ccc3C2=O)C(=O)N1 [Example 51, (3S)-3-(5-{[4-(3-chloro-5-fluoropyridin-2-yl)-6-(3-fluoroazetidin-1-yl)-1H-pyrazolo[3,4-b]pyridin-1-yl]methyl}-1-oxo-2,3-dihydro-1H-isoindol-2-yl)piperidine-2,6-dione] | 8.83 | 30.14
7 | 0.86 nM | 8.55 | O=C1CCC(N2Cc3cc(Cn4cnc5c(-c6ccc(C(F)(F)F)cc6Cl)cc(N6CC(F)C6)nc54)ccc3C2=O)C(=O)N1 (centres unmarked) [Example 19, 3-(5-((7-(2-chloro-4-(trifluoromethyl)phenyl)-5-(3-fluoroazetidin-1-yl)-3H-imidazo[4,5-b]pyridin-3-yl)methyl)-1-oxoisoindolin-2-yl)piperidine-2,6-dione] | 9.42 | 23.48
8 | ≥ 1000 nM | 92.07 | O=C1CC[C@H](N2Cc3cc(Cn4ncc5c(-c6ncc(C(F)(F)F)cc6Cl)cc(N6CCOCC6)nc54)ccc3C2=O)C(=O)N1 [Example 131, (3S)-3-[5-({4-[3-chloro-5-(trifluoromethyl)pyridin-2-yl]-6-(morpholin-4-yl)-1H-pyrazolo[3,4-b]pyridin-1-yl}methyl)-1-oxo-2,3-dihydro-1H-isoindol-2-yl]piperidine-2,6-dione] | 8.51 | 59.06
